Experimental data published in patent US10478421B1, “Sortilin binding compounds, formulations, and uses thereof” (University of Florida, priority 2016, dated 2019).

Target: T1, hsortilin (Homo sapiens, UniProt Q99523)
T1 construct: Human sortilin (hsortilin) (Ser78-Asn755) with C-terminal 6-His tag; purchased R&D Systems, Inc. (Minneapolis, Minn.)
T1 sequence (Q99523 78-755): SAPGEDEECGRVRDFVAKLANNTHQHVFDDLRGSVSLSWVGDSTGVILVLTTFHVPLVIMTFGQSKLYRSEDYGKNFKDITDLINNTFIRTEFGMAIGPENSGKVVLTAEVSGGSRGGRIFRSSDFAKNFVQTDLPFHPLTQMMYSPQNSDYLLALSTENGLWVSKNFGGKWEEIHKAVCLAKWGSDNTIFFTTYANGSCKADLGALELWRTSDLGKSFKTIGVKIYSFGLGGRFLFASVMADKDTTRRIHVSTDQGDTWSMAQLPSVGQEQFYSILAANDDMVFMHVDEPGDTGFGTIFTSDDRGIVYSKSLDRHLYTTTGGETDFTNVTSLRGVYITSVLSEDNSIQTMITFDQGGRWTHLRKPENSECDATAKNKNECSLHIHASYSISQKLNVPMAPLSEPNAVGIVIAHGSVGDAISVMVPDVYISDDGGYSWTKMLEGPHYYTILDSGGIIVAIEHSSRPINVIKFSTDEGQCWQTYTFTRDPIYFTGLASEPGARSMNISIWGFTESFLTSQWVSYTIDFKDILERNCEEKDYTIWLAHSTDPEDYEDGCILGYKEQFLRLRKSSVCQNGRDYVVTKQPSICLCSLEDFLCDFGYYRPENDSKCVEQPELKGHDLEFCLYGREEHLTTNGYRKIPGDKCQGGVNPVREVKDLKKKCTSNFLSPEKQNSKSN
Assay: Liposome floatation assay of hsortilin binding to PIP3 liposomes
Settings: increasing concentrations of cpd984
Method: Unilamellar liposomes containing specific lipid compositions were produced using lipids dissolved in chloroform that were mixed according to mole percentages of 2.6 μmoles total phospholipid. Lipids were dried and desiccated overnight followed by incubation with PBS (2.6 ml) for 1 h. Lipids were resuspended by vortexing and disrupted by sonication for 30 min. To measure binding, a liposome floatation assay was used by adding concentrations 50 nM or 100 nM hsortilin to liposomes (150 μl) containing 5% PIP3, 20% PE and 75% PC; 10% PIP3, 20% PE, 70% PC; or 0% PIP3, 80% PC, and 20% PE as described. Samples containing 50 nM or 100 nM protein and liposomes in the presence and absence of cpd984 were incubated for 10 min at 30° C. and 630 μl of 1.65 M sucrose/PBS was added. Samples were overlaid with 630 μl of 0.75 M sucrose/PBS, and PBS to the top of the tube and centrifuged (200,000×g, 90 min, 4° C.), and floated liposomes recovered from the 0.75 M sucrose layer. Liposomes at the interface of the top and second fraction were recovered and diluted in 2 ml of PBS and re-isolated by centrifugation (16,000×g, 20 min, 4° C.). 50 μl PBS and 20 μl 5×SDS sample buffer was added to the final liposome pellet. Bound proteins were resolved by SDS-PAGE and detected by western immunoblotting following transfer to PVDF membranes.

With `CN1CCC[C@H]1C(=O)Nc1cccc(NC(=O)CCc2ccccc2)c1` [cpd984, (2S)-1-methyl-N-{3-[(3-phenylpropanoyl)-amino]phenyl} pyrrolidine-2-carboxamide] the “effect on sortilin binding to PIP3 liposomes” value was “increased sortilin binding to PIP3 liposomes”.
